Results on one compound are retold here after publication PMC8658016, “Identification of New Compounds with Anticonvulsant and Antinociceptive Properties in a Group of 3-substituted (2,5-dioxo-pyrrolidin-1-yl)(phenyl)-Acetamides” (International Journal of Molecular Sciences, 2021).

In one data set the test system is mice. The experiment in a line: Capsaicin-induced neurogenic pain test. Type of data set: in vivo. Conditions: Mus musculus, ip; mice i.p. The procedure: We used the capsaicin-induced pain model to test the impact of compound 14 on neurogenic pain. In this model, the activation of TRPV1 receptors on C-type primary afferents led to the release of inflammatory neuropeptides, contributing to the local and spinal sensitization and excitability.
The experiments were conducted on adult male Albino Swiss mice (CD-1, 18–25 g) and male Wistar rats (Krf:(WI) WU), 180–250 g) as described previously. The minimum number of animals used needed to obtain definite and normally distributed results with the utilized test. Behavioral measures were scored by trained observers, which were blind to experimental conditions. The following devices were used in the experiments: Analgesy Meter (37215, Ugo Basile), Plantar Test Apparatus (EFV5, Commat Ltd., Turkey), Plethysmometer (Plethysmometer 7140, Ugo Basile), Electronic von Frey unit (BIOSEB, France). […]
Data were presented as means ± standard error of the mean (S.E.M). […] Statistically significant differences between groups were calculated using one-way analysis of variance (ANOVA) and the post hoc Dunnett’s multiple comparison test or two-way analysis of variance (ANOVA) and the post hoc Tukey’s comparison when appropriate. […]

Data set [1] can be described thus: Pharmacokinetic study in mice, serum and brain (LC-MS/MS). Type of data set: in vivo, mouse. Particulars: for k el: non-compartmental analysis, read-out: λz (converted). Here is the method:
The amount of the target compound in the serum and brain was determined by an LC-MS/MS system. […] The compound also very quickly penetrated to the murine brain and reached the maximum concentration in this organ at 15 min. However, the brain concentrations were lower than those in the serum. The compound was slowly eliminated from the body as its concentrations were still measurable up to 8 h. The terminal slope reflecting the elimination rate from the brain was similar to that observed in the serum. Male CD-1 mice weighting 28–33 g housed in conditions of the constant temperature with a 12:12 h light–dark cycle with free access to food and water were used in this study. The investigated compound was dissolved in sterile water for injection (Polpharma, Poland) and administered i.p. at a dose of 40 mg/kg. The mice were sacrificed by decapitation under isoflurane anesthesia. Blood samples were collected at 5, 15, 30, 60, 120, 240, and 480 min after dosing and brains were harvested at the same time points. Blood was allowed to clot at room temperature for 20 min and serum was separated by centrifugation at 3000 rpm for 10 min (Eppendorf MiniSpin centrifuge, Germany). The samples were stored at −80 °C until analysis. All animal procedures were approved by the First Ethical Committee on Animal Experimentation in Krakow, Poland (no. 270/2019). Concentrations of compound 14 in mouse brains and serum were measured by liquid chromatography tandem mass spectrometry (LC-MS/MS) method using SCIEX QTRAP 4500 triple quadrupole mass spectrometer coupled to Excion LC AC HPLC system (both from Danaher Corporation, Washington, DC, USA). Chromatographic separation was carried out on the Hypersil GoldTM C18 analytical column (2.1 × 50 mm, 3 µm, Thermo Scientific, USA) with the oven temperature set at 40 °C. […] The remaining time of elution was set at 95% B. The whole HPLC operation lasted 10 min. Electrospray ionization (ESI) in the positive ion mode was used for ion production. The tandem mass spectrometer was operated at unit resolution in the selected reaction monitoring mode (SRM), monitoring the transition of the protonated molecular ions m/z 489 to 132 (CE = 65 eV) and m/z 489 to 231 (CE = 29 eV) for compound 14 (first pair was used as a quantifier and the second for the identity verification qualifier) and m/z 436 to 235 (CE = 42 eV) for an internal standard (valsartan). The mass spectrometric conditions were optimized by continuous infusion of the standard solution at the rate of 7 μL/min using a Harvard infusion pump. The ion source temperature was maintained at 450 °C and the ion spray voltage was set at 5500 V. The curtain gas (CUR) was set at 40 psi and the collision gas (CAD) at medium. Data acquisition and processing were accomplished using the Analyst version 1.7 software. The calibration curves were constructed by plotting the ratio of the peak area of the studied compound to internal standard (IS) versus drug concentration and generated by weighted (1/x·x) linear regression analysis. The validated quantitation ranges for this method were within the expected concentration ranges, namely, from 0.1 to 20 µg/mL of serum and from 0.05 to 10 µg/g of brain tissue with accuracy from 93.73 to 104.29% and from 88.33 to 107% for serum and brain, respectively. No significant matrix effect was observed and there were no stability-related problems during the routine analysis of the samples. The brains were homogenized in distilled water at the ratio of 1:4 (w/v) with a tissue homogenizer LabGEN 125 (Cole-Parmer, Vernon Hills, IL, USA). […] Serum supernatant was additionally diluted 10 times with the deproteinization solution. Then, brain or serum supernatants were transferred into the autosampler vials. The autosampler temperature was maintained at 15 °C and a sample volume of 2 μL was injected into the LC-MS/MS system.

Where [2] appears, read: male, CD-1, mouse, ip, brain, mice, 40 mg/kg i.p.
Where [3] appears, read: male, CD-1, mouse, ip, serum, mice, 40 mg/kg i.p.

Where two headings read alike, the source gives them in different places. Some results are limits rather than exact numbers.

For orientation: ED50 means the dose at which the effect has come halfway, by size or by number of responders. The low end stands for an effect at a small dose, the high end for a need for a large dose. One may read the Cmax as the maximum level reached in the sampled fluid or tissue. The MRT is a mean duration of stay, worked out from the concentration-time curve. By Tmax is commonly meant the time at which the peak concentration occurs. What is called CL/F is clearance divided by bioavailability, as obtained after extravascular dosing.

In the data set with mice, `CN(C)C1CC(=O)N(C(C(=O)N2CCN(c3cccc(C(F)(F)F)c3)CC2)c2ccccc2)C1=O.Cl` (stereo not shown) [Compound 14, 3-(Dimethylamino)-1-(2-oxo-1-phenyl-2-(4-(3-(trifluoromethyl)phenyl)-piperazin-1-yl)ethyl)pyrrolidine-2,5-dione hydrochloride] gave an ED50 of 54.1 mg/kg. In addition, the “AUC0-∞” value is reported as 413.17 µg⋅min/mL(g) in data set [1] (brain, mice, 40 mg/kg i.p.) and 1451.22 µg⋅min/mL(g) in data set [1] (serum, mice, 40 mg/kg i.p.). Also, the Cmax in data set [1] (brain, mice, 40 mg/kg i.p.) was 5.32 µg/mL(g); in data set [1] (male, CD-1, mouse, brain, ip, 40 mg/kg, mice i.p., calculated for the free base, read-out: Cmax in the brain), 10.9 µM; in data set [1] (male, CD-1, mouse, serum, ip, 40 mg/kg, mice i.p., calculated for the free base, read-out: Cmax in serum), 41.1 µM; in data set [1] (serum, mice, 40 mg/kg i.p.), 20.06 µg/mL(g). The t0.5λz in data set [1] (brain, mice, 40 mg/kg i.p.) stood at 66.14 min; in data set [1] (serum, mice, 40 mg/kg i.p.) it was 64.65 min. Moreover, the Kp in data set [1] (male, CD-1, mouse, brain and serum, ip, mice, 40 mg/kg i.p., read-out: brain-to-serum AUC ratio) was at most 0.3. In addition, the concentration at 30 min was 7.2 µM in data set [1] (male, CD-1, mouse, brain, ip, 40 mg/kg, mice i.p., calculated for the free base, read-out: C30 min. in the brain); 3500 ± 990 ng/g in data set [1] (male, CD-1, mouse, brain, ip, mice, 40 mg/kg i.p., read-out: brain level 30 min post-dose); 24.3 µM in data set [1] (male, CD-1, mouse, serum, ip, 40 mg/kg, mice i.p., calculated for the free base, read-out: C30 min. in serum). Also, the MRT in data set [1] (setting [2]) is 1.49 h; in data set [1] (setting [3]), 1.56 h. The results for the Tmax in data set [1] (setting [2]) and in data set [1] (setting [3]) were 15 min and 5 min, respectively. Besides, the k el in data set [1] (setting [2]) and in data set [1] (setting [3]) was 0.000183 s⁻¹ each time. Also, the CL/F in data set [1] (setting [3]) worked out at 27 mL/min/kg. For the same compound, the “brain concentration 15 min after administration (highest)” value in data set [1] (mice, 40 mg/kg i.p.) amounted to 5.32 ± 0.54 µg/g tissue. This compound had a V/F in data set [1] (serum, mice, 40 mg/kg i.p.) of 2.57 L/kg.
